Here are results for 58 molecules from patent US20240238323A1, “MODIFIED NUCLEOSIDES AND NUCLEOTIDES ANALOGS AS ANTIVIRAL AGENTS FOR CORONA AND OTHER VIRUSES” (Emory University, priority 2021, published 2024).

The first experiment deals with SARS-CoV-2. Put plainly: microbe, parasite or virus in culture. The conditions noted are these: Severe acute respiratory syndrome coronavirus 2, Vero, 48 h, Vero cells; virus yield, 48 h post-infection; read-out: Anti-SARS-COV-2 activity in Vero cells EC50. It is filed as cell-based.
Take `[N-]=[N+]=NC1C(O)[C@@H](CO)O[C@H]1n1ccc(=O)[nH]c1=O` (stereo partly drawn): the concentration giving a half-maximal response (EC50) was under 10 µM. Regarding `OC[C@@H]1O[C@H](n2ncc3c(S)ncnc32)C(O)C1O` (stereo partly drawn), the EC50 is under 10 µM. Same read-out and setting: the result for `Nc1nc(Cl)nc2c1ncn2[C@H]1CO[C@@H](CO)O1` reads over 10 µM; that for `Nc1nc2c(ncn2[C@@H]2C[C@H](CO)C(O)C2O)c(=O)[nH]1` (stereo partly drawn), under 10 µM; that for `[N-]=[N+]=NC1C[C@@H](COC(=O)c2ccccc2)O[C@H]1n1ccc(=O)[nH]c1=O` (stereo partly drawn), 10 µM. Same read-out and setting: the same measure for `OC[C@@H]1O[C@H](n2nnc3c(O)ncnc32)C(O)C1O` (stereo partly drawn): under 10 µM; for `Nc1ccn([C@@H]2O[C@@](CO)(COC(F)F)[C@@H](O)[C@H]2F)c(=O)n1`: under 10 µM. Still for that read-out and setting: the same measure for `COc1ncnc2c1c(C(F)(F)F)cn2[C@@H]1O[C@H](CO)C(O)C1(C)O` (stereo partly drawn): under 10 µM; for `NC1C=CN([C@@H]2O[C@H](CO)CC2(Cl)Cl)C(=O)N1` (stereo partly drawn): under 10 µM.

On to `C#C[C@]1(CO)O[C@@H](n2cnc3c(N)ncnc32)C(O)C1O` (stereo partly drawn), for which the half-maximal effective concentration (EC50) was under 10 µM.

Consider `C#CC1C(O)[C@@H](CO)O[C@H]1n1cc(F)c(=O)[nH]c1=O` (stereo partly drawn), for which the EC50 was under 10 µM. The same measure, in the same setting: the result for `Nc1ncnc2c1ccn2[C@@H]1C[C@H](CO)C(O)C1O` (stereo partly drawn) reads under 10 µM; that for `O=c1ccn([C@@H]2O[C@H](CO)CC2F)c(=O)[nH]1` (stereo partly drawn), under 10 µM; that for `OC[C@@H]1C=C[C@H](n2cnc3c(Cl)nc(Cl)nc32)C1`, under 10 µM. Take `CC1(O)C(O)[C@@H](CO)O[C@H]1n1ccc(N)nc1=O` (stereo partly drawn): the EC50 stood at 9.2 µM. Still for that read-out and setting: the result for `O=c1ccn([C@@H]2C[C@H](CO)C(O)C2O)c(=O)[nH]1` (stereo partly drawn) reads under 10 µM; that for `O=c1[nH]c(=O)n([C@H]2C[C@@H](CO)C(O)C2O)cc1F` (stereo partly drawn), under 10 µM; that for `CC1(F)C[C@@H](CO)O[C@H]1n1ccc(=O)[nH]c1=O` (stereo partly drawn), 10 µM. On the same count and under the same terms, the result for `CC1(O)C(O)[C@H](n2ccc(NO)nc2=O)S[C@@H]1CO` (stereo partly drawn) reads 1.2 µM. Same read-out and setting: the same measure for `CC1(O)C(O)[C@H](n2ccc(N)nc2=O)O[C@@H]1CO` (stereo partly drawn): 0.4 µM; for `O=c1cnn([C@@H]2O[C@H](CO)C(O)C2O)c(=O)[nH]1` (stereo partly drawn) [drawing 46]: 0.75 µM; for `OC[C@@H]1CC[C@H](n2cnc3c(Cl)nc(Cl)nc32)C1`: under 10 µM. For the molecule `Nc1ncnc2c1cnn2[C@H]1O[C@@H](CO)C(O)C1O` (stereo partly drawn), the EC50 was under 10 µM. The same measure, in the same setting: the same measure for `O=c1nc(NO)ccn1C1CCC(CO)O1` (stereo not drawn): 2.5 µM; for `Nc1nc(O)c2[nH]cc([C@@H]3C[C@H](CO)C(O)C3O)c2n1` (stereo partly drawn): under 10 µM.

Consider `C[C@@]1(O)C(O)[C@@H](CO)O[C@H]1n1ncc(=O)[nH]c1=O` (stereo partly drawn) [drawing 50], for which the EC50 was determined as 10 µM. Same read-out and setting: the same measure for `Nc1ncnc2c([C@H]3O[C@@H](CO)C(O)C3O)cnn12` (stereo partly drawn): under 10 µM; for `Nc1ccn([C@H]2CC[C@@H](CO)O2)c(=O)n1`: under 10 µM.

`Nc1cnn([C@@H]2O[C@H](CO)C(O)C2O)c(=O)n1` (stereo partly drawn): the EC50 is under 10 µM. On the same count and under the same terms, the same measure for `CC(C)C(=O)OC[C@@H]1OC[C@H](n2cnc3c(Cl)nc(Cl)nc32)O1`: 2.3 µM; for `Nc1nc(N)c2ncn([C@H]3CO[C@@H](CO)O3)c2n1`: 10 µM. For the molecule `Nc1ncnc2c1ncn2[C@@H]1C[C@H](CO)C(O)C1O` (stereo partly drawn), the EC50 was under 10 µM. Still for that read-out and setting: the same measure for `COc1nc(Cl)nc2c1ncn2[C@H]1CO[C@@H](CO)O1`: under 10 µM; for `Nc1ncnc2c([C@@H]3C[C@H](CO)C(O)C3O)c[nH]c12` (stereo partly drawn): under 10 µM; for `O=c1ccn([C@H]2CC[C@@H](CO)O2)c(=O)[nH]1`: 10 µM.

Regarding `C#C[C@]1(CO)O[C@@H](N2C=CC(N)NC2=O)[C@H](O)[C@@H]1O` (stereo partly drawn), the EC50 is under 10 µM. Same read-out and setting: the same measure for `Nc1nccc2c1ncn2[C@@H]1O[C@H](CO)C(O)C1O` (stereo partly drawn): 6 µM; for `COc1cnn([C@@H]2O[C@H](CO)C(O)C2O)c(=O)n1` (stereo partly drawn): under 10 µM. Still for that read-out and setting: the result for `O=c1ccn([C@H]2CC(F)(F)[C@@H](CO)S2)c(=O)[nH]1` reads under 10 µM; that for `Nc1ccn([C@@H]2O[C@@](CO)(C3CCO3)C(O)C2F)c(=O)n1` (stereo partly drawn), under 10 µM. With `OC[C@H]1O[C@@H](n2cnc3c(S)ncnc32)C(O)C1O` (stereo partly drawn), the EC50 was determined as 11.1 µM.

Consider `CC1(O)C(O)[C@@H](CO)O[C@H]1n1cc(F)c2c(N)ncnc21` (stereo partly drawn), for which the EC50 worked out at 7.6 µM.

For `OC[C@H]1C[C@@H](c2c[nH]c3c(O)ncnc23)C(O)C1O` (stereo partly drawn), the half-maximal effective concentration (EC50) was under 10 µM. Still for that read-out and setting: the same measure for `OC[C@@H]1OC[C@H](n2cnc3c(Cl)nc(Cl)nc32)O1`: under 10 µM.

Staying with this experiment, now noted: Severe acute respiratory syndrome coronavirus 2, Vero, 48 h, read-out: Anti-SARS-COV-2 activity in Vero cells EC50.
As to `Nc1nc2c(ncn2[C@H]2CO[C@@H](CO)O2)c(=O)[nH]1`, the 50% effective concentration (EC50) is over 10 µM. Same read-out and setting: the same measure for `CC(C)OC(=O)[C@H](C)N[P@](=O)(OC[C@H]1O[C@@H](n2ncc(=O)[nH]c2=O)[C@](C)(O)C1O)Oc1ccccc1` (stereo partly drawn): 10 µM. Same read-out and setting: the result for `CC(C)OC(=O)[C@H](C)N[P@](=O)(OC[C@H]1O[C@@H](n2ncc(=O)[nH]c2=O)C(O)C1O)Oc1ccccc1` (stereo partly drawn) reads under 10 µM; that for `C#C[C@]1(CO[P@@](=O)(N[C@@H](C)C(=O)OC(C)C)Oc2ccccc2)O[C@@H](n2ccc(=O)[nH]c2=O)[C@H](O)[C@@H]1O`, under 10 µM. On the same count and under the same terms, the result for `CC(C)OC(=O)[C@H](C)NP(=O)(OC[C@H]1O[C@@H](n2ccc(N)nc2=O)C(O)C1(C)O)Oc1ccccc1` (stereo partly drawn) reads 9.3 µM. Regarding `CC(C)OC(=O)[C@H](C)NP(=O)(OC[C@@H]1C=C[C@H](n2cnc3c(Cl)nc(Cl)nc32)C1)Oc1ccccc1` (stereo partly drawn), the 50% effective concentration (EC50) was under 10 µM. Same read-out and setting: the same measure for `CC(C)OC(=O)[C@H](C)NP(=O)(OC[C@@H]1CC[C@H](n2cnc3c(Cl)nc(Cl)nc32)C1)Oc1ccccc1` (stereo partly drawn): under 10 µM; for `CC(C)OC(=O)[C@H](C)N[P@@](=O)(OC[C@H]1O[C@@H](n2ccc(=O)[nH]c2=O)C(F)C1O)Oc1ccccc1` (stereo partly drawn): under 10 µM. With `CC(C)OC(=O)[C@H](C)N[P@](=O)(OC[C@@H]1OC[C@H](n2cnc3c(Cl)nc(Cl)nc32)O1)Oc1ccccc1`, the EC50 was over 10 µM. Turning to `CCOC(=O)[C@H](C)NP(=O)(OC[C@@H]1OC[C@H](n2cnc3c(OC)nc(N)nc32)O1)Oc1ccccc1` (stereo partly drawn), the 50% effective concentration (EC50) is over 10 µM.

Turning to `CC(C)OC(=O)[C@H](C)NP(=O)(OC[C@H]1O[C@@H](n2cnc3c(N)ncnc32)C(C)(O)C1O)Oc1ccccc1` (stereo partly drawn), the concentration for a half-maximal effect (EC50) is under 10 µM. Same read-out and setting: the result for `CC(C)OC(=O)[C@H](C)NP(=O)(OC[C@H]1C[C@@H](n2cnc3c(N)ncnc32)C(O)C1O)Oc1ccccc1` (stereo partly drawn) reads under 10 µM.

The same experiment, now with this note: Severe acute respiratory syndrome coronavirus 2, Vero, 48 h, read-out: Anti-SARS-COV-2 activity in Vero cells EC90.
With `CC(C)OC(=O)[C@H](C)NP(=O)(OC[C@H]1O[C@@H](n2ccc(N)nc2=O)C(O)C1(C)O)Oc1ccccc1` (stereo partly drawn), the concentration for an effect of 90% (EC90) is over 10 µM.

Staying with this experiment, now noted: Severe acute respiratory syndrome coronavirus 2; Vero cells; virus yield, 48 h post-infection; read-out: Anti-SARS-COV-2 activity in Vero cells EC90.
With `CC1(O)C(O)[C@@H](CO)O[C@H]1n1ccc(N)nc1=O` (stereo partly drawn), the 90% effect concentration (EC90) is 29.6 µM.

As to `CC1(O)C(O)[C@H](n2ccc(NO)nc2=O)S[C@@H]1CO` (stereo partly drawn), the EC90 amounted to 8.7 µM. Same read-out and setting: the result for `CC1(O)C(O)[C@H](n2ccc(N)nc2=O)O[C@@H]1CO` (stereo partly drawn) reads 3.6 µM.

For the molecule `O=c1cnn([C@@H]2O[C@H](CO)C(O)C2O)c(=O)[nH]1` (stereo partly drawn) [drawing 46], the EC90 worked out at 2.5 µM. The same measure, in the same setting: the same measure for `O=c1nc(NO)ccn1C1CCC(CO)O1` (stereo not drawn): 83.4 µM; for `CC(C)C(=O)OC[C@@H]1OC[C@H](n2cnc3c(Cl)nc(Cl)nc32)O1`: 6.5 µM.

As to `Nc1nccc2c1ncn2[C@@H]1O[C@H](CO)C(O)C1O` (stereo partly drawn), the EC90 is 15.2 µM. With `OC[C@H]1O[C@@H](n2cnc3c(S)ncnc32)C(O)C1O` (stereo partly drawn), the concentration for an effect of 90% (EC90) is 23.5 µM. With `CC1(O)C(O)[C@@H](CO)O[C@H]1n1cc(F)c2c(N)ncnc21` (stereo partly drawn), the EC90 was 28.8 µM.

Still in this experiment, the particulars now being: Vero cells; virus yield, 48 h post-infection; read-out: Anti-SARS-COV-2 activity in Vero cells EC50.
Take `C[C@@]1(O)C(O)[C@@H](CO)O[C@H]1n1ncc(=O)[nH]c1=O` (stereo partly drawn) [drawing 58]: the EC50 is under 10 µM.

Another experiment has as its target SARS-CoV-2 RdRp complex (nsp12-nsp7-nsp8) (Severe acute respiratory syndrome coronavirus 2, UniProt P0DTD1).
Experiment: not given
The format is biochemical. To be noted: concentrations of 1, 10 and 100 μM.
On to `O=c1cnn([C@@H]2O[C@H](CO)C(O)C2O)c(=O)[nH]1` (stereo partly drawn) [drawing 105], for which the “inhibition of RNA synthesis by RdRp complex” value is recorded as “not significantly inhibited”.

Still in this experiment, the particulars now being: concentrations of 250 and 500 μM.
For `O=c1cnn([C@@H]2O[C@H](CO)C(O)C2O)c(=O)[nH]1` (stereo partly drawn) [drawing 105], the “inhibition of RNA synthesis by RdRp complex” value is “significant inhibition”.
